Experimental data published in patent publication US20260234115A1, “LIPID COMPOUNDS, COMPOSITIONS, AND USES THEREOF” (Liberate Bio, Inc., priority 2023, published 2026).
Marks after values point to notes of the source that are not given here.

Key:
mouse organs = test: In vivo activity screening in mice: organ mean total flux (p/s) of luciferase activity after injection of F2 LNP pools (Table 6, FIG. 7A-7C); settings: Mouse 9, dose 0.5 mg/kg, luciferase mRNA
How it was run: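 C57BL/6J mice given one tail-vein injection of pooled Formulation F2 LNPs carrying firefly luciferase mRNA (0.25-3 mg/kg) in PBS. At 4-6 h, s.c. D-luciferin given; organs imaged ex vivo by IVIS within 10-15 min, after saline cardiac perfusion. Mean total flux (p/s) per organ ROI.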

NHP organs = test: In vivo activity screening in non-human primates: mean normalized UMI counts of barcoded mRNA in tissues after IV infusion of pooled F2 LNPs (Table 7, FIG. 8-11); design: species or system cynomolgus monkeys (Macaca fascicularis)
Method: Non-human primate (NIIP) biodistribution studies were performed in cynomolgus monkeys (e.g., Macaca fascicularis), aged 4-6 years. Animals were premedicated with dexamethasone, famotidine and diphenhydramine (at 1, 0.5 and 5 mg/kg, respectively) −2 and −1 day prior to test material dosing. LNP formulations (prepared in Formulation F2 from Example 1) were prepared with ionizable lipids so that each LNP formulation encapsulates one or more mRNAs with predetermined unique barcode sequences as their cargo. LNPs in PBS, identified by their unique barcoded mRNA cargo, are then pooled together at predetermined ratios. To evaluate LNP biodistribution into tissues upon systemic administration, NHPs received the dose administration by single intravenous infusion via peripheral vein (cephalic, saphenous, or another available) for 30 minutes with LNP dosing material (individual or pooled) in PBS at different total dose (0.5-1 mg/kg) levels.
At predetermined time points (4-6 hours after pooled test material administration), animals were sacrificed by exsanguination via the femoral artery after the intravenous injection of ketamine (10 mg/kg) and Euthasol® (0.25 mL/kg). Then, all animals underwent whole-body perfusion with PBS prior to tissue collection. 20-25 mg samples for biodistribution analysis were collected from all treatment group animals and then placed in sample tubes containing RNALater™ solution. All tissue samples were stored at room temperature for 24 hours, then the supernatants were removed, and samples were frozen.
To determine the unique LNPs distributed in the tissues, samples were homogenized by a tissue homogenizer (e.g., TissueLyser). Total RNA from the tissue homogenates were extracted by standard methods. Then, normalized amounts of RNA were sequenced using a targeted RNA sequencing approach with unique molecular identifiers (UMI) to ensure accurate RNA molecule counting. For each tissue, the resulting RNA molecule counts were normalized by pooled test article RNA counts. The results were analyzed using the internal bioinformatics pipeline.
LNPs comprising MC3 used as a control and for cross-mouse comparison. Dose is in mg/kg; LC is Lipid Compound according to Table 1.
Screening results for NHP Group 1 (spleen, femur, and muscle) are shown in FIG. 8A, FIG. 8B, and FIG. 8C.

CCCCC/C=C\CCOC(=O)CCCCC(=O)OCC(COC(=O)CCCCC(=O)OCC/C=C\CCCCC)(COC(=O)CCC(CCCCCC)OC(=O)C12CCN(CC1)CC2)COC(=O)CC12CC3CC(CC(C3)C1)C2 (stereo not shown) [Compound 62, O6-[2-[[2-(1-adamantyl)acetyl]oxymethyl]-2-[[6-[(Z)-non-3-enoxy]-6-oxo-hexanoyl]oxymethyl]-3-[4-(quinuclidine-4-carbonyloxy)decanoyloxy]propyl]O1-[(Z)-non-3-enyl]hexanedioate]
Organ Mean Total Flux Femur (mouse organs): 0.6 p/s (×10^6)
Organ Mean Total Flux Heart (mouse organs): 0.1 p/s (×10^6)
Organ Mean Total Flux Kidney (mouse organs): 0.3 p/s (×10^6)
Organ Mean Total Flux Liver (mouse organs): 38.0 p/s (×10^6)
Organ Mean Total Flux Lung (mouse organs): 2.5 p/s (×10^6)
Organ Mean Total Flux Muscle (mouse organs): 1.4 p/s (×10^6)
Organ Mean Total Flux Pancreas (mouse organs): 0.5 p/s (×10^6)
Organ Mean Total Flux Spleen (mouse organs): 3.3 p/s (×10^6)
Mean normalized UMI counts (×10^4) Bone Marrow (NHP organs; NHP 2, bone marrow, pooled F2 LNPs, IV infusion, 4-6 hours): 19.0 ×10^4
Mean normalized UMI counts (×10^4) Brain (NHP organs; NHP 2, brain, pooled F2 LNPs, IV infusion, 4-6 hours): 3.8 ×10^4
Mean normalized UMI counts (×10^4) Heart (NHP organs; NHP 2, heart, pooled F2 LNPs, IV infusion, 4-6 hours): 87.0 ×10^4
Mean normalized UMI counts (×10^4) Kidney (NHP organs; NHP 2, kidney, pooled F2 LNPs, IV infusion, 4-6 hours): 21.9 ×10^4
Mean normalized UMI counts (×10^4) Liver (NHP organs; NHP 2, liver, pooled F2 LNPs, IV infusion, 4-6 hours): 27.4 ×10^4
Mean normalized UMI counts (×10^4) Lung (NHP organs; NHP 2, lung, pooled F2 LNPs, IV infusion, 4-6 hours): 21.8 ×10^4
Mean normalized UMI counts (×10^4) Muscle (NHP organs; NHP 2, muscle, pooled F2 LNPs, IV infusion, 4-6 hours): 43.9 ×10^4
Mean normalized UMI counts (×10^4) Pancreas (NHP organs; NHP 2, pancreas, pooled F2 LNPs, IV infusion, 4-6 hours): 8.1 ×10^4
Mean normalized UMI counts (×10^4) Spleen (NHP organs; NHP 2, spleen, pooled F2 LNPs, IV infusion, 4-6 hours): 29.8 ×10^4

CCCCC/C=C\CCOC(=O)CCCCC(=O)OCC(COC(=O)CCCCC(=O)OCC/C=C\CCCCC)(COC(=O)CCC(CCCCCC)OC(=O)NCCN1CCCC1)COC(=O)C12CC3CC(CC(C3)C1)C2 (stereo not shown) [Compound 63, O6-[2-(adamantane-1-carbonyloxymethyl)-2-[[6-[(Z)-non-3-enoxy]-6-oxo-hexanoyl]oxymethyl]-3-[4-(2-pyrrolidin-1-ylethylcarbamoyloxy)decanoyloxy]propyl]O1-[(Z)-non-3-enyl]hexanedioate]
Organ Mean Total Flux Femur (mouse organs): 10.4 p/s (×10^6)
Organ Mean Total Flux Heart (mouse organs): 1.9 p/s (×10^6)
Organ Mean Total Flux Kidney (mouse organs): 2.4 p/s (×10^6)
Organ Mean Total Flux Liver (mouse organs): 351.7 p/s (×10^6)
Organ Mean Total Flux Lung (mouse organs): 37.3 p/s (×10^6)
Organ Mean Total Flux Muscle (mouse organs): 37.4 p/s (×10^6)
Organ Mean Total Flux Pancreas (mouse organs): 15.8 p/s (×10^6)
Organ Mean Total Flux Spleen (mouse organs): 40.7 p/s (×10^6)
Mean normalized UMI counts (×10^4) Bone Marrow (NHP organs; cynomolgus monkey, in vivo, iv): 233.0 ×10^4
Mean normalized UMI counts (×10^4) Brain (NHP organs; cynomolgus monkey, in vivo, iv): 72.8 ×10^4
Mean normalized UMI counts (×10^4) Heart (NHP organs; cynomolgus monkey, in vivo, iv): 115.8 ×10^4
Mean normalized UMI counts (×10^4) Kidney (NHP organs; cynomolgus monkey, in vivo, iv): 153.6 ×10^4
Mean normalized UMI counts (×10^4) Liver (NHP organs; cynomolgus monkey, in vivo, iv): 108.2 ×10^4
Mean normalized UMI counts (×10^4) Lung (NHP organs; cynomolgus monkey, in vivo, iv): 139.5 ×10^4
Mean normalized UMI counts (×10^4) Muscle (NHP organs; cynomolgus monkey, in vivo, iv): 142.7 ×10^4
Mean normalized UMI counts (×10^4) Pancreas (NHP organs; cynomolgus monkey, in vivo, iv): 89.4 ×10^4
Mean normalized UMI counts (×10^4) Spleen (NHP organs; cynomolgus monkey, in vivo, iv): 207.6 ×10^4
